Laboratory results published in patent US20250179016A1, “AMORPHOUS MELANOCORTIN-4 RECEPTOR AGONIST” (LG CHEM, LTD., priority 2020, published 2025).

Key:
[1] = Stability assessment: storage of the solid sample, then HPLC analysis; format: physicochemical; details: in % (unit assumed)
[2] = as above; format: physicochemical; details: in % (unit assumed); for Stability result (HPLC analysis), Open ACC: open state, accelerated condition (40° C., 75% RH); for Stability result (HPLC analysis), Closed STR: sealed state, harsh condition, oven at 80° C.
Experimental: About 10-30 mg of the sample was stored for 4 weeks in an open state under the accelerated condition (40° C., 75% RH) or in a sealed state under the harsh condition in an oven at 80° C.

Q: For `CC(C)C(=O)N([C@H]1C[C@@H](C(=O)N2CCOCC2)N(C(=O)[C@@H]2CN(C(C)(C)C)C[C@H]2c2ccc(Cl)cc2)C1)[C@H]1CC[C@@H](C)CC1.Cl` [Example 1, N-((3S,5S)-1-((3S,4R)-1-(tert-butyl)-4-(4-chlorophenyl)pyrrolidine-3-carbonyl)-5-(morpholine-4-carbonyl)pyrrolidin-3-yl)-N-((1s,4R)-4-methylcyclohexyl)isobutyramide hydrochloride], which “Stability result (HPLC analysis), Closed RT” value ([1]; Week 2, stored at room temperature) is on record?
A: 97.86

Q: And the “Stability result (HPLC analysis), Closed RT” value ([1]; Week 4, stored at room temperature)?
A: 97.27

Q: And the “Stability result (HPLC analysis), Open ACC” value (“Stability result … Open ACC” below) ([2]; Day 3)?
A: 97.95

Q: And the “Stability result (HPLC analysis), Closed STR” value (“Stability result … Closed STR” for short) ([2]; Day 3)?
A: 97.94

Q: And the “Stability result (HPLC analysis)” value ([2]; Initial)?
A: 97.94

Q: And the “Stability result … Open ACC” value ([2]; Week 1)?
A: 98.04

Q: And the “Stability result … Closed STR” value ([2]; Week 1)?
A: 97.83

Q: What about the “Stability result … Open ACC” value ([2]; Week 2) of the same compound?
A: 98.04

Q: And the “Stability result … Closed STR” value ([2]; Week 2)?
A: 97.88

Q: What about the “Stability result … Open ACC” value ([2]; Week 4) of the same compound?
A: 97.68

Q: And the “Stability result … Closed STR” value ([2]; Week 4)?
A: 97.10
